Measurements: patent US20250263370A1 (Tay Therapeutics Limited, priority 2022, published 2025)
Read-outs that look alike come from different tables or passages of the source.

Assay: Beagle dog PK study 1 of Example 101 (propylene glycol-based formulation, IV and PO), with clinical observations
Format: in vivo
Settings: for concentration at 0.083 h / concentration at 0.25 h / concentration at 0.5 h / concentration at 1 h / concentration at 2 h / concentration at 4 h / concentration at 8 h / concentration at 24 h / AUC(0-inf) / AUC(0-t) / C0 / half-life / MRT inf / Vd / Cmax / Tmax: beagle, dog, plasma; for concentration at 0.083 h / concentration at 0.25 h / concentration at 0.5 h / concentration at 1 h / concentration at 2 h / concentration at 4 h / concentration at 8 h / concentration at 24 h: dog PK study 1, IV; for MRT inf: read-out: MRTInf—obs; for Vd: read-out: Vss—obs; for animal's temperature: test animal 3 in group 1 (1 mg/kg IV)
Method: The purpose of this study was to examine the pharmacokinetics of Example 101 in beagle dogs. […] An oral PK study was also undertaken in Lewis rats—see Experimental Method C.
Body weight was recoded prior to dosing, and detailed clinical observations were made prior to dosing and throughout the study, as needed.
Subsequently, 17.320 mL Vitamin E TPGS was added, and the solution was vortexed and sonicated. Then, 51.960 mL water was added, and solution was then heated. […] Subsequently, 39.894 mL Vitamin E TPGS was added, and the solution was vortexed and sonicated. Then, 119.682 mL water was added, and the solution was heated.
Blood samples (˜0.3 mL) were collected according to a schedule (detailed below) by venipuncture of peripheral veins except for the dosing vein, and EDTA-K2 was used as anticoagulant. Within 30 minutes of collection, the samples were centrifuged at approximately 2000×g for 10 minutes at 4° C. to obtain blood plasma. The plasma samples were immediately divided into two aliquots (˜75 μL each), transferred to a cryogenic vial, and stored in a freezer at −75±15° C. prior to analysis. […]
The experiments were conducted on a Shimadzu DGU-20A5R and AB API 5500+LC/MS/MS instrument with an Agilent Poroshell EC-C18 4 μm (50×2.1 mm) column. A gradient of 95% water (0.1% formic acid)/95% acetonitrile (0.1% formic acid) was used as the mobile phase. The sample injection volume was 1 μL, and the flow rate was 0.6 mL/min. The gathered data were used for pharmacokinetic calculations using T½, C0, AUClast, AUCinf, MRTinf, CI, Vss, and Number of Points for Regression as parameters.

[1] = iv, 1 mg/kg, Test Animal 1, read-out: Plasma concentration
[2] = iv, 1 mg/kg, Test Animal 2, read-out: Plasma concentration
[3] = iv, 1 mg/kg, Test Animal 3, read-out: Plasma concentration
[4] = iv, 1 mg/kg, mean, read-out: Average plasma concentration, Mean
[5] = iv, 1 mg/kg, dog PK study 1, intravenous, Test Animal 1
[6] = iv, 1 mg/kg, dog PK study 1, intravenous, Test Animal 2
[7] = iv, 1 mg/kg, dog PK study 1, intravenous, Test Animal 3
[8] = iv, 1 mg/kg, dog PK study 1, intravenous, mean
[9] = po, 5 mg/kg, dog PK study 1, oral, Test Animal 1
[10] = po, 5 mg/kg, dog PK study 1, oral, Test Animal 2
[11] = po, 5 mg/kg, dog PK study 1, oral, Test Animal 3
[12] = po, 5 mg/kg, dog PK study 1, oral, mean
[13] = dog PK study 1, intravenous, Test Animal 1
[14] = dog PK study 1, intravenous, Test Animal 2
[15] = dog PK study 1, intravenous, Test Animal 3
[16] = dog PK study 1, intravenous, mean
[17] = dog PK study 1, oral, Test Animal 1
[18] = dog PK study 1, oral, Test Animal 2
[19] = dog PK study 1, oral, Test Animal 3

## CNC(=O)c1[nH]c(C(=O)NC2CCC2)cc1O[C@@H](C)c1ccccc1 (stereo in doubt) [Example 101, N^5-cyclobutyl-N^2-methyl-3-(1-phenylethoxy)-1H-pyrrole-2,5-dicarboxamide]
Beagle dogs, 1 mg/kg IV, group 1
  plasma concentration as a function of time (FIG. 1A): Decreases in plasma concentration were consistent across all animals and timepoints
Beagle dogs, 5 mg/kg PO, group 2
  time post-administration at which plasma concentrations began to steadily decrease (FIG. 1B): approximately 1 h
Beagle dogs, PK studies 1 and 2, oral and intravenous
  tolerability: capable of being administered orally and intravenously and well tolerated
[1]
  concentration at 0.083 h: 1340 ng/mL
  concentration at 0.25 h: 1120 ng/mL
  concentration at 0.5 h: 1040 ng/mL
  concentration at 1 h: 623 ng/mL
  concentration at 2 h: 314 ng/mL
  concentration at 4 h: 81.6 ng/mL
  concentration at 8 h: 15.7 ng/mL
  concentration at 24 h: 0 ng/mL
[2]
  concentration at 0.083 h: 1320 ng/mL
  concentration at 0.25 h: 954 ng/mL
  concentration at 0.5 h: 747 ng/mL
  concentration at 1 h: 580 ng/mL
  concentration at 2 h: 265 ng/mL
  concentration at 4 h: 56.5 ng/mL
  concentration at 8 h: 3.65 ng/mL
  concentration at 24 h: 0 ng/mL
[3]
  concentration at 0.083 h: 1370 ng/mL
  concentration at 0.25 h: 1110 ng/mL
  concentration at 0.5 h: 867 ng/mL
  concentration at 1 h: 520 ng/mL
  concentration at 2 h: 313 ng/mL
  concentration at 4 h: 68 ng/mL
  concentration at 8 h: 4.61 ng/mL
  concentration at 24 h: 0 ng/mL
[4]
  concentration at 0.083 h: 1340 ng/mL
  concentration at 0.25 h: 1060 ng/mL
  concentration at 0.5 h: 885 ng/mL
  concentration at 1 h: 574 ng/mL
  concentration at 2 h: 297 ng/mL
  concentration at 4 h: 68.7 ng/mL
  concentration at 8 h: 8 ng/mL
  concentration at 24 h: 0 ng/mL
[5]
  AUC(0-inf): 2100 ng·h/mL
  AUC(0-t): 2070 ng·h/mL
  C0: 1460 ng/mL
  half-life: 1.42 h
  MRT inf: 1.54 h
  Vd: 0.734 L/kg
[6]
  AUC(0-inf): 1720 ng·h/mL
  AUC(0-t): 1720 ng·h/mL
  C0: 1550 ng/mL
  half-life: 0.976 h
  MRT inf: 1.29 h
  Vd: 0.747 L/kg
[7]
  AUC(0-inf): 1870 ng·h/mL
  AUC(0-t): 1860 ng·h/mL
  C0: 1520 ng/mL
  half-life: 0.992 h
  MRT inf: 1.35 h
  Vd: 0.719 L/kg
[8]
  AUC(0-inf): 1900 ng·h/mL
  AUC(0-t): 1880 ng·h/mL
  C0: 1510 ng/mL
  half-life: 1.13 h
  MRT inf: 1.39 h
  Vd: 0.733 L/kg
[9]
  AUC(0-t): 4520 ng·h/mL
  Cmax: 2220 ng/mL
  Tmax: 1 h
[10]
  AUC(0-inf): 2960 ng·h/mL
  AUC(0-t): 2930 ng·h/mL
  Cmax: 1550 ng/mL
  Tmax: 0.5 h
  half-life: 1.15 h
  MRT inf: 1.62 h
[11]
  AUC(0-inf): 5010 ng·h/mL
  AUC(0-t): 5000 ng·h/mL
  Cmax: 2240 ng/mL
  Tmax: 1 h
  half-life: 0.845 h
  MRT inf: 1.83 h
[12]
  AUC(0-inf): 3980 ng·h/mL
  AUC(0-t): 4150 ng·h/mL
  Cmax: 2000 ng/mL
  Tmax: 0.83 h
  half-life: 1 h
  MRT inf: 1.73 h
[13]
  AUClast/D: 2066 (ng · h/mL)/(mg/kg)
  AUC—% Extrap—obs: 1.54%
  Cl_obs: 7.94 mL/min/kg
[14]
  AUClast/D: 1718 (ng · h/mL)/(mg/kg)
  AUC—% Extrap—obs: 0.298%
  Cl_obs: 9.67 mL/min/kg
[15]
  AUClast/D: 1864 (ng · h/mL)/(mg/kg)
  AUC—% Extrap—obs: 0.353%
  Cl_obs: 8.91 mL/min/kg
[16]
  AUClast/D: 1883 (ng · h/mL)/(mg/kg)
  AUC—% Extrap—obs: 0.73%
  Cl_obs: 8.84 mL/min/kg
[17]
  AUClast/D: 903 (ng · h/mL)/(mg/kg)
  F: 48.0%
[18]
  AUClast/D: 586 (ng · h/mL)/(mg/kg)
  AUC—% Extrap—obs: 0.831%
  F: 31.1%
[19]
  AUClast/D: 1000 (ng · h/mL)/(mg/kg)
  AUC—% Extrap—obs: 0.232%
  F: 52.8%
Dog PK study 1, oral, mean
  AUClast/D: 830 (ng · h/mL)/(mg/kg)
  AUC—% Extrap—obs: 0.531%
  F: 44.0%
4 h timepoint
  animal's temperature: 36.4 °C
6 h timepoint
  animal's temperature: 38.1 °C
